# Calls of active or inactive are those of the source.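 How the source made its calls: active means a fitted half-maximal concentration EC50 for the rise in nuclear signal no higher than ten times the top dose tested; inconclusive means flat fit with activity between 30% and 70%, or unusable fit; inactive means EC50 beyond ten times the top dose.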
# Biological target: Hypoxia-inducible factor 1-alpha (Homo sapiens) (UniProt Q16665)
# Assay: activators of HIF1alpha nuclear accumulation, confirmation, imaging, fluorescence, U2OS GFP-HIF1alpha (AID 434951)
# Settings: U2OS GFP-HIF1alpha nuclear intensity, high-content imaging
# Chain of Hypoxia-inducible factor 1-alpha (Homo sapiens) (Q16665 whole entry, looked up): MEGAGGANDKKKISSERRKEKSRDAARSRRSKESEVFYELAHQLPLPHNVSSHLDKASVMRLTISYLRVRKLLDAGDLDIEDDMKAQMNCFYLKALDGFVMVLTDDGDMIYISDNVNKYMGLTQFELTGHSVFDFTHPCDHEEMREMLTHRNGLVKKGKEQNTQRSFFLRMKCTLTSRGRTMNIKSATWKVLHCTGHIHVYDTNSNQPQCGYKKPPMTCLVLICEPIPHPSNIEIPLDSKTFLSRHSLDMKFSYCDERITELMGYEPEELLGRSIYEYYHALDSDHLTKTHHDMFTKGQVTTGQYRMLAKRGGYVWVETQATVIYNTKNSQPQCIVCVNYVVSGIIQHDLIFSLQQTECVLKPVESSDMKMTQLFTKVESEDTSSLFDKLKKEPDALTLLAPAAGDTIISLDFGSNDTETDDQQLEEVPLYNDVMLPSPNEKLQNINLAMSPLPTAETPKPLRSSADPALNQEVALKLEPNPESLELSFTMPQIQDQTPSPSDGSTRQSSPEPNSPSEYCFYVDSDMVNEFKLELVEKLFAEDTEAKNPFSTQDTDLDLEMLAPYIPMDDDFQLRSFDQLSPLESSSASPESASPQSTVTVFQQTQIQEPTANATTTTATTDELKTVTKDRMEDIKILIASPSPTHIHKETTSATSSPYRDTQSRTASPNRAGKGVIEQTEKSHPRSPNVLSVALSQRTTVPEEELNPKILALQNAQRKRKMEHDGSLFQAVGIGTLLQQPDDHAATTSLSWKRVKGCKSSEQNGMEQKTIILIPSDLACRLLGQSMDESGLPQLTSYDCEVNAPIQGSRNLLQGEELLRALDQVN
row,EC50,SMILES
1,3.85 µM,CCC(=O)NC(c1ccc(C)cc1)c1ccc2cccnc2c1O (stereo not drawn)
2,4.75 µM,CCc1cc2c(=O)[nH]c(-c3ccccn3)nc2s1
3,> 35 µM (inactive),c1ccc(OCc2nc(-c3ccncc3)no2)cc1
4,> 35 µM (inactive),CCCCCCN1C=CC=C/C1=C/C=C(C#N)C#N
5,> 35 µM (inactive),FC(F)(F)c1ccc(-c2nc(=S)[nH][nH]2)cc1
6,10.4 µM,O=C(CSC1=NNC(c2ccccn2)S1)Nc1ccc(C(F)(F)F)cc1 (stereo not drawn)
7,> 35 µM (inactive),O=C(Cn1ncc2c3ccccc3n(Cc3ccccc3F)c2c1=O)NCCN1CCOCC1
8,> 35 µM (inactive),Cc1cc(C)c(C(=O)N2CCCC(N3CCN(c4cccc(C(F)(F)F)c4)CC3)C2)o1 (stereo not drawn)
9,> 35 µM (inactive),COC(=O)CN1C(=O)[C@H]2[C@@H](c3ccc(C)o3)N3C(=O)CN(CC4CC4)C(=O)[C@@]3(Cc3ccccc3)[C@H]2C1=O
10,> 35 µM (inactive),Cc1cc(C)cc(NC(=O)c2cccc(NC(=O)c3ccco3)c2)c1
11,> 35 µM (inactive),CC(=O)N1c2ccc(S(=O)(=O)NCCc3ccccc3)cc2CC1C (stereo not drawn)
12,> 35 µM (inactive),O=c1oc2cc([N+](=O)[O-])ccc2nc1/C=C(\O)c1cccc(Br)c1
13,> 35 µM (inactive),CC(=O)Nc1ccc(S(=O)(=O)/N=C2\C(=O)c3ccccc3C([O-])=C2n2cc[n+](-c3ccccn3)c2)cc1
14,> 35 µM (inactive),CC1CN(c2nc3ccccn3c(=O)c2/C=C(\C#N)C(=O)N2CCOCC2)CC(C)O1 (stereo not drawn)
15,> 35 µM (inactive),CC(C)c1nc(CNC(=O)CCc2nnc(-c3ccsc3)o2)cs1
16,> 35 µM (inactive),COc1cccc(C(=O)CN2C(=O)C(C)(C)Oc3ccc(C(=O)N4CCOCC4)cc32)c1
17,> 35 µM (inactive),O=C(NCCSc1c[nH]c2ccccc12)c1ccc(Br)o1
18,> 35 µM (inactive),CCOc1ccc2c(c1)c1nnc(SCC3CCCO3)nc1n2C (stereo not drawn)
19,> 35 µM (inactive),COc1ccc(NC(=S)NCc2cccnc2)cc1
20,> 35 µM (inactive),COC(=O)C1=C(C)N(C)C(=O)NC1c1cc(Cl)c(O)c(OC)c1 (stereo not drawn)
21,> 35 µM (inactive),Cc1ccc(OC(C)C(=O)N2CC(=O)Nc3ccccc32)cc1 (stereo not drawn)
22,34.7 µM,CCCCOc1ccc(C(=O)NCC(=O)OC2CCOC2=O)cc1 (stereo not drawn)
23,1.85 µM,COc1cnc(-c2ccccn2)nc1NC(C)C
24,> 35 µM (inactive),C=C(C)CNC(=O)c1ccc2nc(Cc3ccc(OC)cc3)oc2c1
25,10.9 µM,COc1ccc(C(NC(C)=O)c2ccc3cccnc3c2O)c(OC)c1 (stereo not drawn)
26,> 35 µM (inactive),CC(C)CC(NC(=O)c1ccccc1NC(=O)c1ccccc1)C(=O)O (stereo not drawn)

row,EC50,SMILES
1,> 35 µM (inactive),CC(C)c1nnc(NC(=O)CCC(=O)NC2CC2)s1
2,> 35 µM (inactive),CC(C)[C@H](NC(=O)c1ccco1)C(=O)OCc1cc(=O)n2c(n1)sc1ccccc12
3,> 35 µM (inactive),Cc1nc2nc(-c3ccco3)nn2c(C)c1Cl
4,> 35 µM (inactive),COc1ccccc1NC(=O)C1CCN(C(=O)c2ccc(C(C)(C)C)cc2)CC1
5,18.1 µM,Cn1c(N/N=C/c2cc3ccccc3nc2Cl)nc2ccccc21
6,> 35 µM (inactive),O=C(NC(=S)Nc1ccccn1)c1cc(-c2ccccc2)nc2ccccc12
7,> 35 µM (inactive),CN(CCS(=O)(=O)c1ccc(Cl)cc1)Cc1cccnc1
8,9.39 µM,O=C(NCCCN1CCOCC1)c1cc(-c2ccccc2)on1
9,> 35 µM (inactive),CC1CCN(C(=O)CS(=O)(=O)Cc2ccccc2)CC1
10,18.6 µM,c1ccc(CSC2=NNC(c3ccccn3)S2)cc1 (stereo not drawn)
11,> 35 µM (inactive),CCOC(=O)/C(=N\Nc1cccc(C(F)(F)F)c1)N1CCOCC1
12,> 35 µM (inactive),Cc1ccccc1OCC(=O)Nc1ccc(N2CCN(C)CC2)c(Cl)c1
13,33.4 µM,Cc1ccc(-c2nnn(CC(=O)N(Cc3cccs3)C(C(=O)NC3CCCCC3)c3ccco3)n2)o1 (stereo not drawn)
14,> 35 µM (inactive),Cc1cccc(C(=O)OC(C)CN2CCCC2)c1 (stereo not drawn)
15,> 35 µM (inactive),Cc1cccc(C(=O)O/N=C(\N)c2ccc(Cl)cc2)c1
16,> 35 µM (inactive),Cc1ccc(-c2cc(C(=O)Nc3cccnc3)[nH]n2)c(O)c1C
17,12.3 µM,O=C(NCCCN1CCOCC1)c1cc(-c2cccs2)on1
18,7.4 µM,CNc1nc(-c2ccccn2)nnc1-c1ccccc1
19,35.2 µM,O=C(N/N=C/c1cc(Br)ccc1O)C(=O)Nc1ccccc1OC(F)(F)C(F)F
20,2.68 µM,O=C(NCCCn1ccnc1)c1cc(-c2cccs2)on1
21,8.6 µM,Oc1ccc2ccccc2c1/C=N/Nc1nnc(-c2ncc[nH]2)c2ccccc12
22,> 35 µM (inactive),CCOCC(=O)Nc1ccc(S(=O)(=O)N2CCC(c3nc4ccccc4[nH]3)CC2)cc1
23,> 35 µM (inactive),Cc1cccc(NC(=O)C2CC(=O)NC(Nc3nc4ccccc4s3)=N2)c1 (stereo not drawn)
24,7.22 µM,CCCC(=O)NC(c1ccc(C)cc1)c1ccc2cccnc2c1O (stereo not drawn)
25,35.2 µM,O=C(CCc1ccccc1)NC(c1cccs1)c1cc(Cl)c2cccnc2c1O (stereo not drawn)
26,> 35 µM (inactive),CC[n+]1c(S(=O)(=O)[O-])ccc2ccc(C)cc21

row,EC50,SMILES
1,7.32 µM,CCOC(=O)C(=Cc1ccc(OCc2ccc([N+](=O)[O-])cc2)c(OC)c1)C(=O)OCC
2,> 35 µM (inactive),Cc1ccc(S(=O)(=O)N2CC(C)N(C(=O)N3CCOCC3)C2C)cc1 (stereo not drawn)
3,7.09 µM,COc1ccc(C(NC(=O)c2cccnc2)c2cc(Cl)c3cccnc3c2O)cc1OC (stereo not drawn)
4,> 35 µM (inactive),CC(=O)c1ccc(C(=O)N2CCCC(Nc3ccc(C(C)C)cc3)C2)s1 (stereo not drawn)
5,> 35 µM (inactive),CN(Cc1cccnc1)C(=O)c1cc(COc2ccc3ncccc3c2)on1
6,> 35 µM (inactive),O=C(c1ccc(OC2CCN(CCc3ccccc3)CC2)cc1)N1CCCC(CCCO)C1 (stereo not drawn)
7,> 35 µM (inactive),CCOC(=O)C1CCN(C(=O)C2CCCN(c3ncnc4c3nc3n4CCCCC3)C2)CC1 (stereo not drawn)
8,17.7 µM,c1ccc(Cc2nnc(-c3ccccc3)o2)cc1
9,> 35 µM (inactive),O=C(NCCc1ccccc1)c1cc2sccc2n1Cc1ccccc1
10,4.41 µM,Cc1ccc(Nc2c(-c3ccccn3)nc3cccc(C)n23)cc1
11,> 35 µM (inactive),COc1ccc(C(=O)CCNc2ccc(F)cc2)cc1
12,1.81 µM,CCOC(=O)c1cnc(-n2nc(C)cc2C)nc1NNc1nc(-c2ccccc2)cc(-c2ccccc2)n1
13,> 35 µM (inactive),O=C1OCc2cc(NC(=O)C34CC5CC(CC(C5)C3)C4)ccc21
14,> 35 µM (inactive),COc1ccc(/C=N/NC(=O)c2ccoc2C)cc1O
15,> 35 µM (inactive),Cc1ccc(C2=NS(=O)(=O)N(C)C(C(=O)NC3CCCC3)=C2)cc1
16,> 35 µM (inactive),CCN(CC)CCn1c2ccccc2c2cnc(N)c(C#N)c21
17,> 35 µM (inactive),Cn1nc(C(F)(F)F)cc1C(=O)NC1CCCCCC1
18,> 35 µM (inactive),COC(=O)CCCC1=CC2=CC(=O)C(C)(OC(=O)c3cccs3)C(=O)C2=CN1Cc1ccc2c(c1)OCO2 (stereo not drawn)
19,> 35 µM (inactive),O=C(C1=NN[C@@H]2C(=O)N(c3cccc(C(F)(F)F)c3)C(=O)[C@H]12)C(c1ccccc1)c1ccccc1
20,> 35 µM (inactive),CCOC(=O)CNC(=O)CSc1nnc(Cn2cnc3ccccc32)n1C
21,> 35 µM (inactive),COC(=O)C(NC(=O)c1c(C)nn(C)c1Cl)c1ccccc1 (stereo not drawn)
22,> 35 µM (inactive),Cc1ccc(C(=O)Nc2cccc([N+](=O)[O-])c2)cc1S(=O)(=O)Nc1ccc(NC(=O)c2ccccc2)cc1
23,> 35 µM (inactive),O=C(C[n+]1ccn(CCCNP2(=O)C=C(c3ccccc3)OC(c3ccccc3)=C2)c1)c1cccs1
24,> 35 µM (inactive),COc1ccccc1C/C(N)=N/O
25,5.59 µM,Cc1cc(C)n(-c2ccc3cccc(NS(C)(=O)=O)c3n2)n1
26,> 35 µM (inactive),CCOC(=O)Cc1nn(CC)c(=O)c2ccccc12

row,EC50,SMILES
1,8.61 µM,Cc1ccccc1Nc1c(-c2ccccn2)nc2ccccn12
2,> 35 µM (inactive),Cc1cc(=O)oc2cc(OCC(=O)N3CCN(c4ccc(F)cc4)CC3)ccc12
3,> 35 µM (inactive),CCN(CC)c1ccc(NC(=O)Cn2nnc(-c3cccc(OC)c3OC)n2)c(C)c1
4,> 35 µM (inactive),O=C1CCCC(O)=C1C=Nc1cccc(C(F)(F)F)c1
5,22.5 µM,Cc1snc(SCC(=O)N/N=C(\N)COc2cccc(C(F)(F)F)c2)c1C#N
6,> 35 µM (inactive),COc1ccc(C2CC(c3cccs3)=NN2C(=O)CSc2nc(=O)n3cc(C)ccc3n2)cc1 (stereo not drawn)
7,6.78 µM,O=C(NCC1CCCO1)c1cc(-c2ccccc2)on1 (stereo not drawn)
8,> 35 µM (inactive),Cc1cccc(OCC(=O)NCC(=O)N/N=C/c2cccnc2)c1
9,0.629 µM,O=C(N/N=C(\c1ccccc1)c1ccccn1)c1cccc([N+](=O)[O-])c1
10,5.51 µM,Cc1ccc(Nc2c(-c3ccccn3)nc3cc(C)ccn23)cc1
11,5.74 µM,Oc1ccc2ccccc2c1N=Nc1nccs1
12,12.7 µM,CN(C)S(=O)(=O)c1cccc(NC(=S)N/N=C/c2cc(Br)ccc2O)c1
13,> 35 µM (inactive),CCOC(=O)c1cc2c(ccn2C)n1CC(=O)N1CCN(c2ccccc2)CC1
14,> 35 µM (inactive),Cc1ccc(NC(=O)Nc2cccc(F)c2)nc1
15,6.81 µM,COc1ccc(N/N=C/c2c(C(=O)O)ccc3ccccc23)cc1
16,> 35 µM (inactive),CC(=O)c1ccc(N(C(=O)c2csnn2)C(C(=O)NC(C)(C)C)c2cccs2)cc1 (stereo not drawn)
17,> 35 µM (inactive),COc1cc2c(cc1OC)C(C)N(S(=O)(=O)c1ccc(Cl)nc1)CC2 (stereo not drawn)
18,6.13 µM,Cc1ccc2nc(-c3ccccn3)c(Nc3ccccc3C)n2c1
19,> 35 µM (inactive),CCCCC(=O)N1CCN(c2nc3ccc(F)cc3s2)CC1
20,1.33 µM,CC(=O)NC(c1ccc(C(C)C)cc1)c1ccc2cccnc2c1O (stereo not drawn)
21,> 35 µM (inactive),CCOC(=O)C1=C(C)NC(C)=C(C(=O)OCC)C1C(=O)OCC(=O)N(C)C1CCS(=O)(=O)C1 (stereo not drawn)
22,> 35 µM (inactive),Cc1ccc(C2(C)NC(=O)N(CC(=O)Nc3ccccc3N3CCCC3)C2=O)cc1 (stereo not drawn)
23,> 35 µM (inactive),O=C(CSc1nnc(-c2ccncc2)o1)N1CCCCCC1
24,> 35 µM (inactive),Cc1ccc(C(CC(=O)O)C2CCOC(C)(C)C2)cc1 (stereo not drawn)
25,> 35 µM (inactive),CCCCN(C(=O)c1c(C)[nH]c(C(=O)OCC)c1C)c1ccccc1
